Test results as given in BindingDB's records for aid1799744 (Csar, 2012).

Each molecule was assayed against Mitogen-activated protein kinase 1 (Homo sapiens, UniProt P28482) (assay: Assay 1).
Mitogen-activated protein kinase 1, sequence (P28482 whole entry): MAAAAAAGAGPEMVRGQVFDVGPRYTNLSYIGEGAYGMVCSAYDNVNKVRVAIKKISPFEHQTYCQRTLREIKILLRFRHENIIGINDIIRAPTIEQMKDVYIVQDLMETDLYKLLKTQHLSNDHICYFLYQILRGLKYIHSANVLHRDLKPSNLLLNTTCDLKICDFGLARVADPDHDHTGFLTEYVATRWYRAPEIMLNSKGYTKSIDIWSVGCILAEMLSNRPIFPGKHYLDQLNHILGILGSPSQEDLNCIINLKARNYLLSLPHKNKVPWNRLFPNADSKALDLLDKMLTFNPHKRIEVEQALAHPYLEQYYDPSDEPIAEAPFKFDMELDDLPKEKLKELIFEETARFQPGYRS

Ki | SMILES
7 nM | Cc1cnc(NCCc2ccccc2)nc1-c1c[nH]c(C(=O)N[C@H](CO)c2ccccc2)c1 [erk000578]
776 nM | Cc1cnc(NCc2ccncc2)nc1-c1c[nH]c(C(=O)N[C@H](CO)c2ccccc2)c1 [erk000579]
6 nM | CCONc1ncc(C)c(-c2c[nH]c(C(=O)N[C@H](CO)c3cccc(Cl)c3)c2)n1 [erk000582]
7 nM | Cc1ccc(Nc2ncc(C)c(-c3c[nH]c(C(=O)N[C@H](CO)c4cccc(Cl)c4)c3)n2)cc1 [erk000585]
1 nM | Cc1cnc(NN2CCCCC2)nc1-c1c[nH]c(C(=O)N[C@H](CO)c2ccccc2)c1 [erk000587]
10 nM | Cc1ccc(-c2csc(Nc3ncc(C)c(-c4c[nH]c(C(=O)N[C@H](CO)c5ccccc5)c4)n3)n2)cc1 [erk000588]
3 nM | CCONc1ncc(C)c(-c2c[nH]c(C(=O)N[C@H](CO)c3cccc(C)c3)c2)n1 [erk000599]
10 nM | Cc1cccc([C@@H](CO)NC(=O)c2cc(-c3nc(NOCC(C)C)ncc3C)c[nH]2)c1 [erk000600]
8 nM | Cc1cccc([C@@H](CO)NC(=O)c2cc(-c3nc(Nc4cccc(F)c4C)ncc3C)c[nH]2)c1 [erk000601]
9 nM | Cc1cccc([C@@H](CO)NC(=O)c2cc(-c3nc(Nc4ccccn4)ncc3C)c[nH]2)c1 [erk000603]
46 nM | Cc1cnc(N[C@H]2CCC[C@@H]2OCc2ccccc2)nc1-c1c[nH]c(C(=O)N[C@H](CO)c2cccc(Cl)c2)c1 [erk000609]
71 nM | Cc1cnc(Nc2ccccn2)nc1-c1c[nH]c(C(=O)N[C@H](CO)c2cccc(Cl)c2)c1 [erk000611]
7 nM | Cc1cnc(N[C@H]2CCC[C@H]2O)nc1-c1c[nH]c(C(=O)N[C@H](CO)c2cccc(Cl)c2)c1 [erk000612]
35 nM | Cc1cnc(N[C@H]2CCC[C@@H]2O)nc1-c1c[nH]c(C(=O)N[C@H](CO)c2cccc(Cl)c2)c1 [erk000613]
5 nM | CCCONc1ncc(C)c(-c2c[nH]c(C(=O)N[C@H](CO)c3cccc(C)c3)c2)n1 [erk000614]
2 nM | Cc1cccc(Nc2ncc(C)c(-c3c[nH]c(C(=O)N[C@H](CO)c4cccc(Cl)c4)c3)n2)n1 [erk000619]
229 nM | CC[C@@H](COC(C)=O)Nc1ncc(C)c(-c2c[nH]c(C(=O)N[C@H](COC(C)=O)c3cccc(Cl)c3)c2)n1 [erk000620]
5 nM | Cc1cnc(NN2CCCCC2)nc1-c1c[nH]c(C(=O)N[C@H](CO)c2cccc(Cl)c2)c1 [erk000621]
7 nM | Cc1cnc(NN2CCCC2)nc1-c1c[nH]c(C(=O)N[C@H](CO)c2cccc(Cl)c2)c1 [erk000624]

Ki | SMILES
1260 nM | Cc1cnc(N)nc1-c1c[nH]c(C(=O)NCc2cccc(F)c2)c1 [erk000626]
977 nM | Cc1cnc(N)nc1-c1c[nH]c(C(=O)NCc2cc(F)cc(F)c2)c1 [erk000629]
209 nM | Cc1cnc(N[C@H]2CCOC2)nc1-c1c[nH]c(C(=O)N[C@H](CO)c2cccc(Cl)c2)c1 [erk000631]
4 nM | CCNc1ncc(C)c(-c2c[nH]c(C(=O)N[C@H](CO)c3cccc(C)c3)c2)n1 [erk000634]
4 nM | CCNc1ncc(C)c(-c2c[nH]c(C(=O)N[C@H](CO)c3cccc(Cl)c3)c2)n1 [erk000635]
28 nM | Cc1cnc(N[C@H]2CCCOC2)nc1-c1c[nH]c(C(=O)N[C@H](CO)c2cccc(Cl)c2)c1 [erk000640]
4 nM | Cc1cnc(NC2CCCCC2)nc1-c1c[nH]c(C(=O)N[C@H](CO)c2cccc(Cl)c2)c1 [erk000643]
38 nM | CC(=O)OC[C@@H](NC(=O)c1cc(-c2nc(Nc3ccccc3)ncc2C)c[nH]1)c1ccccc1 [erk000646]
26 nM | Cc1cnc(NN(C)C)nc1-c1c[nH]c(C(=O)N[C@H](CO)c2cccc(Cl)c2)c1 [erk000648]
4 nM | Cc1csc(Nc2ncc(C)c(-c3c[nH]c(C(=O)N[C@H](CO)c4cccc(Cl)c4)c3)n2)n1 [erk000652]
3 nM | Cc1ccc(Nc2ncc(C)c(-c3c[nH]c(C(=O)N[C@H](CO)c4ccccc4)c3)n2)c(C)c1 [erk000653]
52 nM | CCN(CC)c1ccc(Nc2ncc(C)c(-c3c[nH]c(C(=O)N[C@H](CO)c4ccccc4)c3)n2)c(C)c1 [erk000654]
2340 nM | Cc1cnc(NO)nc1-c1c[nH]c(C(=O)N[C@H](CO)c2ccccc2)c1 [erk000656]
8 nM | Cc1cnc(Nc2ccc(Cl)cc2Cl)nc1-c1c[nH]c(C(=O)N[C@H](CO)c2ccccc2)c1 [erk000657]
2 nM | Cc1cnc(Nc2ccc(F)cc2F)nc1-c1c[nH]c(C(=O)N[C@H](CO)c2ccccc2)c1 [erk000658]
229 nM | NS(=O)(=O)c1cccc(Nc2nccc(-c3ccc(O)c(C(=O)O)c3)n2)c1 [erk000659]
3 nM | Cc1cnc(NNS(C)(=O)=O)nc1-c1c[nH]c(C(=O)N[C@H](CO)c2cccc(Cl)c2)c1 [erk000661]
71 nM | Cc1cnc(Nc2ccc3ncsc3c2)nc1-c1c[nH]c(C(=O)N[C@H](CO)c2cccc(Cl)c2)c1 [erk000665]
3 nM | Cc1cc(N)ccc1Nc1ncc(C)c(-c2c[nH]c(C(=O)N[C@H](CO)c3cccc(Cl)c3)c2)n1 [erk000668]

Further lines, the molecule ahead of its results:

SMILES | Ki
Cc1cnc(Nc2c(C)cccc2Cl)nc1-c1c[nH]c(C(=O)N[C@H](CO)c2ccccc2)c1 [erk000575] | 110 nM
Cc1cnc(NCc2ccccn2)nc1-c1c[nH]c(C(=O)N[C@H](CO)c2ccccc2)c1 [erk000580] | 1120 nM
Cc1cnc(NC2CCOCC2)nc1-c1c[nH]c(C(=O)N[C@H](CO)c2cccc(Cl)c2)c1 [erk000584] | 8 nM
Cc1ccc(Nc2ncc(C)c(-c3c[nH]c(C(=O)N[C@H](CO)c4cccc(C)c4)c3)n2)cc1 [erk000586] | 2 nM
Cc1cnc(Nc2cccc3c2OC(F)(F)O3)nc1-c1c[nH]c(C(=O)N[C@H](CO)c2ccccc2)c1 [erk000591] | 8 nM
Cc1cnc(NC2Cc3ccccc3C2)nc1-c1c[nH]c(C(=O)N[C@H](CO)c2cccc(Cl)c2)c1 [erk000592] | 16 nM
Cc1cnc(Nc2c(F)cccc2F)nc1-c1c[nH]c(C(=O)N[C@H](CO)c2cccc(Cl)c2)c1 [erk000593] | 14 nM
N#Cc1c(NCCN2CCCCC2)sc(-c2ccnc(Nc3cccc(O)c3)n2)c1-c1cccc(Cl)c1 [erk000594] | 27 nM
Cc1cnc(NOCC(C)C)nc1-c1c[nH]c(C(=O)N[C@H](CO)c2cccc(Cl)c2)c1 [erk000597] | 14 nM
Cc1cccc([C@@H](CO)NC(=O)c2cc(-c3nc(NC4CCOCC4)ncc3C)c[nH]2)c1 [erk000602] | 3 nM
CC[C@@H](C)Nc1ncc(C)c(-c2c[nH]c(C(=O)N[C@H](CO)c3cccc(C)c3)c2)n1 [erk000604] | 76 nM
Cc1cnc(N[C@@H](C)C(C)C)nc1-c1c[nH]c(C(=O)N[C@H](CO)c2cccc(Cl)c2)c1 [erk000605] | 6 nM
Cc1cnc(N[C@@H]2CCC[C@H](C)[C@@H]2C)nc1-c1c[nH]c(C(=O)N[C@H](CO)c2cccc(Cl)c2)c1 [erk000606] | 13 nM
Cc1cnc(N[C@H](C)C(C)C)nc1-c1c[nH]c(C(=O)N[C@H](CO)c2cccc(Cl)c2)c1 [erk000607] | 1 nM
Cc1cnc(N[C@H]2CCC[C@H]2OCc2ccccc2)nc1-c1c[nH]c(C(=O)N[C@H](CO)c2cccc(Cl)c2)c1 [erk000608] | 17 nM
Cc1cccc([C@@H](CO)NC(=O)c2cc(-c3nc(N[C@@H]4CCOC4)ncc3C)c[nH]2)c1 [erk000610] | 10 nM
CCCONc1ncc(C)c(-c2c[nH]c(C(=O)N[C@H](CO)c3cccc(Cl)c3)c2)n1 [erk000615] | 4 nM
COc1cccc(Nc2ncc(C)c(-c3c[nH]c(C(=O)N[C@H](CO)c4ccccc4)c3)n2)c1OC [erk000616] | 2 nM
COC[C@@H]1CCCN1Nc1ncc(C)c(-c2c[nH]c(C(=O)N[C@H](CO)c3cccc(Cl)c3)c2)n1 [erk000622] | 9 nM

SMILES | Ki
Cc1cnc(NC2CCNCC2)nc1-c1c[nH]c(C(=O)N[C@H](CO)c2cccc(Cl)c2)c1 [erk000623] | 15 nM
Cc1cccc([C@@H](CO)NC(=O)c2cc(-c3nc(NOCC(F)(F)F)ncc3C)c[nH]2)c1 [erk000625] | 4 nM
Cc1cnc(N)nc1-c1c[nH]c(C(=O)NCc2c(Cl)cccc2Cl)c1 [erk000627] | 324 nM
COc1cccc(CNC(=O)c2cc(-c3nc(N)ncc3C)c[nH]2)c1 [erk000630] | 813 nM
O=c1[nH][nH]c2cc(Nc3ncc(Nc4ccccc4)c(Nc4cc(C5CC5)[nH]n4)n3)ccc12 [erk000633] | 15 nM
Cc1cnc(Nc2ccccc2)nc1-c1c[nH]c(C(=O)N[C@H](COC(=O)[C@@H](N)C(C)C)c2ccccc2)c1 [erk000637] | 380 nM
Cc1cnc(NCC2CCOCC2)nc1-c1c[nH]c(C(=O)N[C@H](CO)c2ccccc2)c1 [erk000638] | 17 nM
Cc1cnc(NCC2CCOCC2)nc1-c1c[nH]c(C(=O)N[C@H](CO)c2cccc(Cl)c2)c1 [erk000639] | 17 nM
Cc1cnc(NN2CCN(C)CC2)nc1-c1c[nH]c(C(=O)N[C@H](CO)c2cccc(Cl)c2)c1 [erk000641] | 20 nM
Cc1cccc([C@@H](CO)NC(=O)c2cc(-c3nc(NC4CCCCC4)ncc3C)c[nH]2)c1 [erk000642] | 12 nM
Cc1cnc(NC2CCCC2)nc1-c1c[nH]c(C(=O)N[C@H](CO)c2cccc(Cl)c2)c1 [erk000644] | 2 nM
Cc1cnc(Nc2ccccc2)nc1-c1c[nH]c(C(=O)N[C@H](COC(=O)CN)c2ccccc2)c1 [erk000645] | 55 nM
Cc1cccc([C@@H](CO)NC(=O)c2cc(-c3nc(NCC(F)(F)F)ncc3C)c[nH]2)c1 [erk000647] | 4 nM
Cc1cnc(NOCc2ccccc2)nc1-c1c[nH]c(C(=O)N[C@H](CO)c2ccccc2)c1 [erk000649] | 191 nM
Cc1cccc([C@@H](CO)NC(=O)c2cc(-c3nc(N[C@H]4CCOC4)ncc3C)c[nH]2)c1 [erk000660] | 4 nM
O=c1[nH][nH]c2cc(Nc3ccc([N+](=O)[O-])c(Nc4cc(C5CC5)[nH]n4)n3)ccc12 [erk000662] | 10 nM
Cc1ccccc1CNC(=O)c1cc(-c2ccnc(N)n2)c[nH]1 [erk000663] | 1290 nM
Nc1nccc(-c2c[nH]c(C(=O)NCc3cccc(Cl)c3)c2)n1 [erk000664] | 525 nM
CC[C@@H](COC(C)=O)Nc1ncc(C)c(-c2c[nH]c(C(=O)N[C@H](CO)c3cccc(Cl)c3)c2)n1 [erk000666] | 6 nM
